The values that follow come from US11331339B2, “Compound composition with function of promoting bone and joint health and application thereof” (Chenland Nutritionals, Inc., priority 2019, dated 2022).

SMILES strings stand for the structures.

The subject of experiment [1] is wistar rats injected with papain. The experiment in a line: Test II: tenderness thresholds at modeling joints, measured with a tenderness meter. The experiment is classed as in vivo. The following applies: papain model, 28 days, daily dosage 126 mg/kg. On the procedure:
Male wistar rats are randomly divided into a control group, a model group and an experimental group. Each group includes 10 rats. The rats are injected with papain for molding. The rats are administered for 28 days at the same time of molding. Before the rats are put to death, the tenderness thresholds at modeling joints are measured with a tenderness meter.

In experiment [2] the test system is IL-1β. The experiment in a line: Test I: IL-1β content in serum of rats injected with papain, administered 28 days. The experiment is classed as in vivo, wistar rats. The following applies: rat serum, papain model, daily dosage 126 mg/kg. On the procedure: Male wistar rats are randomly divided into a control group, a model group and an experimental group. Each group includes 10 rats. The rats are injected with papain for molding. The rats are administered for 28 days at the same time of molding. Before the rats are put to death, blood is taken from the abdominal vein and centrifuged to obtain serum. The IL-1β content is detected. Specific results are shown in Table 1: The blank group includes normal rats for arthritis modeling. The model group includes rats not administered after modeling. The experimental administration group administers the product of the present invention to the rats. The glucosamine sulfate control group administers glucosamine to the rats. The glucosamine+chondroitin sulfate+collagen control group administers glucosamine+chondroitin sulfate+collagen to the rats. IL-1β is an inflammatory factor in the serum. Normal rats contain the lowest levels of inflammatory factors, and the rats with arthritis but not administered contain the highest levels of inflammatory factors. If different products are administered to rats, the degree of arthritis is alleviated to a certain extent and the levels of inflammatory factors in the rats are reduced to be lower than that of the highest model group, but higher than normal rats.

Experiment [3] deals with wistar rats injected with papain. The experiment in a line: Test IV: walking pain score from sole marks. The experiment is classed as in vivo. The following applies: score 0-4, papain model, 28 days, daily dosage 126 mg/kg. On the procedure:
Male wistar rats are randomly divided into a control group, a model group and an experimental group. Each group includes 10 rats. The rats are injected with papain for molding. The rats are administered for 28 days at the same time of molding. Before the rats are put to death, the left and right soles of the rats are evenly imprinted with printing ink of the same color and the rats walk by 0.4 m on a self-made semi-closed rat walking passage. The sole marks are photographed. Three persons independently score the walking pain based on the sole photos according to the following scoring standard for walking pain and measure the walking pain (when the limbs have a pain reaction, the rats move with the minimum contact area of the paws to reduce the pressure on the affected limbs; and when the left and right feet are uneven in stress and the gait is changed, the colors of the soles are different). The sole is divided into four regions: if one region of the left sole is darker than the right sole, the score is 1; if two regions are darker, the score is 2; and the score is added in sequence (0-4 scores). […] The rats administered with the product can alleviate the arthritis to a certain extent, and can walk slightly normally, so as to reflect the degree of arthritis according to the walking scores.

Experiment [4] deals with IL-6. In words: Test I: IL-6 content in serum of rats, same administration time and same dosage. Type of experiment: in vivo, wistar rats. The following applies: rat serum, daily dosage 125 mg/kg. On the procedure:
Male wistar rats are randomly divided into a control group, a model group and an experimental group. Each group includes 10 rats. The rats are injected with papain for molding. The rats are administered for 28 days at the same time of molding. Before the rats are put to death, blood is taken from the abdominal vein and centrifuged to obtain serum. The IL-1β content is detected. Specific results are shown in Table 1: In addition, to verify the technical solution of the present invention and small daily dosage of the single glucosamine, the inventor respectively experiments the male wistar rats in the same administration time and under the same administration dosage, and detects the IL-6 content in the serum.

For `N[C@H]1C(O)O[C@H](CO)[C@@H](O)[C@@H]1O.O=S(=O)(O)O` (some centres unmarked) [Glucosamine sulfate control group 1, Glucosamine sulfate], the Tenderness thresholds in experiment [1] came out at 5.607 ± 0.2602 newton. Moreover, the IL-1β content in experiment [2] was 9.456 ± 1.657 ng/L. The “Scores of walking pain” value in experiment [3] worked out at 0.5 ± 0.2303. Also, the IL-6 content in experiment [4] (listed as Glucosamine sulfate control group) was 146.19 ± 18.15 ng/L; in experiment [4] (listed as glucosamine sulfate control group), “not obviously lower than the model group”.
